Experimental data as given in patent US20210070748A1, “INHIBITORS OF BRUTONS TYROSINE KINASE” (Pharmacyclics LLC, priority 2015, published 2021).

What was measured:
Type in all cases: biochemical
[1] = molecular target: T1, JAK3 (Homo sapiens, UniProt P52333); test: Inhibition of a panel of kinases, in vitro HotSpot kinase assay: JAK3; settings: D-compounds panel data; 1 μM ATP; read-out: IC50 JAK3
T1 sequence (P52333 1-1124): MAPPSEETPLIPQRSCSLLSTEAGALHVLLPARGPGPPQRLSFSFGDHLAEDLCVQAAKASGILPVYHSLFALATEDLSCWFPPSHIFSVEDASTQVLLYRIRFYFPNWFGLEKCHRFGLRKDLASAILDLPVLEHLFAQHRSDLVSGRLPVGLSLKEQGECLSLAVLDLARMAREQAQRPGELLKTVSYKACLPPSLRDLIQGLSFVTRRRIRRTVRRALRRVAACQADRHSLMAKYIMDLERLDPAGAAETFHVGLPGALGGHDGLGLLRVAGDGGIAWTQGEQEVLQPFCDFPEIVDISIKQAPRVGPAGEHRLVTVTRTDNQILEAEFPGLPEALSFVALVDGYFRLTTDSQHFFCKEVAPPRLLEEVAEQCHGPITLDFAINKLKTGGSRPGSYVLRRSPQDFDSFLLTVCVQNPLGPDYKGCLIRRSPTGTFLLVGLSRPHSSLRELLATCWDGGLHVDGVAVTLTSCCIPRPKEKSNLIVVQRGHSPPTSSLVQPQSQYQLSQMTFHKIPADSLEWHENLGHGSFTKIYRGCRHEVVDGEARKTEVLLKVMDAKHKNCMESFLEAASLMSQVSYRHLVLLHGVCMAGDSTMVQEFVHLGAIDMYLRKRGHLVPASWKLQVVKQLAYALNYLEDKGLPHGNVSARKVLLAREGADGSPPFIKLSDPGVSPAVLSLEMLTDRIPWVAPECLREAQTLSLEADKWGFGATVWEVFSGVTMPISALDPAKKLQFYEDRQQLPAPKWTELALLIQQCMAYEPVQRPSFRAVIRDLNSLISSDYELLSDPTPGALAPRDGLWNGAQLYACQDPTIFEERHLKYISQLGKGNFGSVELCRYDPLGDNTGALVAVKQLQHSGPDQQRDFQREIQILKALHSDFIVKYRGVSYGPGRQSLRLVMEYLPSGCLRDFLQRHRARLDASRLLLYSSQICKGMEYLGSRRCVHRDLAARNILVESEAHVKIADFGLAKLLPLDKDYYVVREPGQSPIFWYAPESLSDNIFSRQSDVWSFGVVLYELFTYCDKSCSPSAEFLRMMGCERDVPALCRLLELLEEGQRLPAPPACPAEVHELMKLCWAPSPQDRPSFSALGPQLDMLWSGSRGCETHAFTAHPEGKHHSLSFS

[2] = molecular target: EGFR (Homo sapiens, UniProt P00533); test: Inhibition of a panel of kinases, in vitro HotSpot kinase assay: EGFR; settings: D-compounds panel data; 1 μM ATP
Experimental: (§1) The degree of inhibition of a panel of kinases is determined using the in vitro HotSpot kinase assay (purified enzymes, ^33P-ATP, an appropriate substrate and 1 μM ATP).

[3] = molecular target: LCK (Homo sapiens, UniProt P06239); test: Inhibition of a panel of kinases, in vitro HotSpot kinase assay: LCK; settings: D-compounds panel data; 1 μM ATP; read-out: IC50 LCK
[4] = molecular target: T2, TEC (Homo sapiens, UniProt P42680); test: Inhibition of a panel of kinases, in vitro HotSpot kinase assay: TEC; settings: D-compounds panel data; 1 μM ATP
T2 sequence (P42680 1-631): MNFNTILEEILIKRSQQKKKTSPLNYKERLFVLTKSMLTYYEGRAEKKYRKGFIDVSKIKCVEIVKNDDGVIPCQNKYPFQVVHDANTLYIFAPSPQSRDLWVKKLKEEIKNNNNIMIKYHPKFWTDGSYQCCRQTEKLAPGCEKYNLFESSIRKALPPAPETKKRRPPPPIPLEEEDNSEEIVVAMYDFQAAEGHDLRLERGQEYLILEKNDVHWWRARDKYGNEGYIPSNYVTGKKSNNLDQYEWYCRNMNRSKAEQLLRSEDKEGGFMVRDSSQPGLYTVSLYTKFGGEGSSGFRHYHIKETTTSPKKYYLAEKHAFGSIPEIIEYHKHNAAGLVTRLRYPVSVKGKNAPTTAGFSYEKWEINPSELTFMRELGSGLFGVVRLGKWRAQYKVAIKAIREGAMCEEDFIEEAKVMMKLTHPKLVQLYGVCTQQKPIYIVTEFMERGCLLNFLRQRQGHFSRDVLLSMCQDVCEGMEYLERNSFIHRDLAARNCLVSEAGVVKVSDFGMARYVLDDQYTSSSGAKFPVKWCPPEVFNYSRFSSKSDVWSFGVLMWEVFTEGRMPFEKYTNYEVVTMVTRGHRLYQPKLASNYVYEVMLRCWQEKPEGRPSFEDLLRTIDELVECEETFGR
Experimental: as §1

Sequence of LCK (P06239 whole entry): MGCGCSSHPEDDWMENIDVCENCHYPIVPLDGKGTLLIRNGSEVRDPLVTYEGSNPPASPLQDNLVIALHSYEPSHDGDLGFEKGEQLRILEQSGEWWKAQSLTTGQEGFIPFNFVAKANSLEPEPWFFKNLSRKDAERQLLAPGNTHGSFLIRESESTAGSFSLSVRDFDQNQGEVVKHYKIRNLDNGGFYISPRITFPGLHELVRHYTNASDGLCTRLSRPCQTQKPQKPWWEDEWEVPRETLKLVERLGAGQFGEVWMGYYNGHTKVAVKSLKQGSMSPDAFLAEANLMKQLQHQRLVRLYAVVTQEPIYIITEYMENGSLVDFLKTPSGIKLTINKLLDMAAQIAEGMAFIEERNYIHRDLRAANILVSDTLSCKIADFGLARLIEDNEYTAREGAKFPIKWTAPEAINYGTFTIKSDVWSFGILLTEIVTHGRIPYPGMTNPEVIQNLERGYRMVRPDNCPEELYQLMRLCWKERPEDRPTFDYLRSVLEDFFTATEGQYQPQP
Sequence of EGFR (P00533 25-1210): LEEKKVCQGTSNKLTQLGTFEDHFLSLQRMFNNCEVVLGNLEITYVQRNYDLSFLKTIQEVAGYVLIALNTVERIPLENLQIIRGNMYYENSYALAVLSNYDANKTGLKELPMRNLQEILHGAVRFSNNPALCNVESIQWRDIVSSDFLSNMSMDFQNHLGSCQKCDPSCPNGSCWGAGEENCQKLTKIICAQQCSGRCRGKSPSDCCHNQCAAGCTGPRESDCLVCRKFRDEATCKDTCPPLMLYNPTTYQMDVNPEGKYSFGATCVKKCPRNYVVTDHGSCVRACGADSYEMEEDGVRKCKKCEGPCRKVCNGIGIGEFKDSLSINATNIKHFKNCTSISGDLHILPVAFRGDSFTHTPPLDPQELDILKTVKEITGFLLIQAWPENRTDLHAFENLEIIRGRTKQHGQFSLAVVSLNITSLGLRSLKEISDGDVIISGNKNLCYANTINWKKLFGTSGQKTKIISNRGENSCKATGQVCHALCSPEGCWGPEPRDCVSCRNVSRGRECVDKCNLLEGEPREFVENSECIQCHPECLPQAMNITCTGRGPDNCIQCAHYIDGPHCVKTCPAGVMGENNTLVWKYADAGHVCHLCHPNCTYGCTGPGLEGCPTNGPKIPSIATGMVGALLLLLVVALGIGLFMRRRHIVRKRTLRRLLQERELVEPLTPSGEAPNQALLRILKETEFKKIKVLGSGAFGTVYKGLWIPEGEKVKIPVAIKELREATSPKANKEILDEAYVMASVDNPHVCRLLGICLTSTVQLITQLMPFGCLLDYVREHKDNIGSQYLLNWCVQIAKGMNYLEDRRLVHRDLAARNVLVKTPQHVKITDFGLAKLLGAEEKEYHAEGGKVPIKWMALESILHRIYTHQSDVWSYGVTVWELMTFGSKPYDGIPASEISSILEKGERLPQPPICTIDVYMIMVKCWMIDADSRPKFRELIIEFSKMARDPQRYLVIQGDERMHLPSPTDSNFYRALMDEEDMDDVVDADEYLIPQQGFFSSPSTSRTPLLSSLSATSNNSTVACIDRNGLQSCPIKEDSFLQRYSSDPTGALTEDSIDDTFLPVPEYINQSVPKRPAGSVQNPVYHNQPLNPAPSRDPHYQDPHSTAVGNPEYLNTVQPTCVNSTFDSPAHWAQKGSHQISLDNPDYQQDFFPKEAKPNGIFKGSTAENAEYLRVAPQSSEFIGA

Row | Structure (SMILES) | IC50 [1] [µM] | IC50 [2] [µM] | IC50 [3] [µM] | IC50 [4] [µM]
1 | Cc1ncc(Nc2nc(N3CCC[C@@H](NC(=O)c4ccc(C5CC5)cc4)[C@H]3C)cnc2C(N)=O)s1 [Example D-210, 5-[(2R,3R)-3-(4-cyclopropylbenzamido)-2-methylpiperidin-1-yl]-3-[(2-methyl-1,3-thiazol-5-yl)amino]pyrazine-2-carboxamide] | 1 to 10 | 1 to 10 | 0.1 to 1 | ≤ 0.01
2 | C[C@@H]1[C@H](NC(=O)c2ccc(C3CC3)cc2)CCCN1c1cnc(C(N)=O)c(Nc2ccc(OC3CCN4CCCC4C3)cc2)n1 (stereo partly drawn) [Example D-211, 5-[(2R,3R)-3-(4-cyclopropylbenzamido)-2-methylpiperidin-1-yl]-3-{[4-(octahydroindolizin-7-yloxy)phenyl]amino}pyrazine-2-carboxamide] | 0.1 to 1 | 1 to 10 | 0.01 to 0.1 | ≤ 0.01
3 | C[C@@H]1[C@H](NC(=O)c2ccc(C3(O)CCCC3)cc2)CCCN1c1cnc(C(N)=O)c(Nc2cnn(C)c2)n1 [Example D-212, 5-[(2R,3R)-3-[4-(1-hydroxycyclopentyl)benzamido]-2-methylpiperidin-1-yl]-3-[(1-methyl-1H-pyrazol-4-yl)amino]pyrazine-2-carboxamide] | 0.1 to 1 | 1 to 10 | 0.1 to 1 | ≤ 0.01
4 | C[C@@H]1[C@H](NC(=O)c2ccc(C3CC3)cc2)CCCN1c1cnc(C(N)=O)c(Nc2cnn(CC(C)(C)O)c2)n1 [Example D-215, 5-[(2R,3R)-3-(4-cyclopropylbenzamido)-2-methylpiperidin-1-yl]-3-{[1-(2-hydroxy-2-methylpropyl)-1H-pyrazol-4-yl]amino}pyrazine-2-carboxamide] | > 10 | > 10 | 1 to 10 | 0.1 to 1
5 | C[C@@H]1[C@H](NC(=O)c2ccc3c(c2)OC(F)(F)O3)CCCN1c1cnc(C(N)=O)c(Nc2cnn(C)c2)n1 [Example D-216, 5-[(2R,3R)-3-(2,2-difluoro-2H-1,3-benzodioxole-5-amido)-2-methylpiperidin-1-yl]-3-[(1-methyl-1H-pyrazol-4-yl)amino]pyrazine-2-carboxamide] | 0.1 to 1 | 1 to 10 | 0.1 to 1 | ≤ 0.01
6 | C[C@@H]1[C@H](NC(=O)c2ccc(N(C)CCO)cc2)CCCN1c1cnc(C(N)=O)c(Nc2cnn(C)c2)n1 [Example D-217, 5-[(2R,3R)-3-{4-[(2-hydroxyethyl)(methyl)amino]benzamido}-2-methylpiperidin-1-yl]-3-[(1-methyl-1H-pyrazol-4-yl)amino]pyrazine-2-carboxamide] | 0.1 to 1 | 1 to 10 | 0.1 to 1 | ≤ 0.01
7 | CCN(CC)c1ccc(C(=O)N[C@@H]2CCCN(c3cnc(C(N)=O)c(Nc4cnn(C)c4)n3)[C@@H]2C)cc1 [Example D-218, 5-[(2R,3R)-3-[4-(diethylamino)benzamido]-2-methylpiperidin-1-yl]-3-[(1-methyl-1H-pyrazol-4-yl)amino]pyrazine-2-carboxamide] | 1 to 10 | 1 to 10 | 0.1 to 1 | ≤ 0.01

Continued, values first:

Row | IC50 [1] [µM] | IC50 [2] [µM] | IC50 [3] [µM] | IC50 [4] [µM] | Structure (SMILES)
8 | 1 to 10 | 1 to 10 | 0.01 to 0.1 | ≤ 0.01 | C[C@@H]1[C@H](NC(=O)c2ccc(OC3CC3)cc2)CCCN1c1cnc(C(N)=O)c(Nc2cnn(C)c2)n1 [Example D-219, 5-[(2R,3R)-3-(4-cyclopropoxybenzamido)-2-methylpiperidin-1-yl]-3-[(1-methyl-1H-pyrazol-4-yl)amino]pyrazine-2-carboxamide]
9 | 1 to 10 | > 10 | > 10 | 1 to 10 | CC(C)c1ccc(S(=O)(=O)N[C@@H]2CCCN(c3cnc(C(N)=O)c(Nc4cnn(C)c4)n3)[C@@H]2C)cc1 [Example D-220, 3-[(1-methyl-1H-pyrazol-4-yl)amino]-5-[(2R,3R)-2-methyl-3-[4-(propan-2-yl)benzenesulfonamido]piperidin-1-yl]pyrazine-2-carboxamide]
10 | > 10 | 1 to 10 | 0.1 to 1 | 0.01 to 0.1 | C[C@@H]1[C@H](NC(=O)c2ccc(C3(C(F)(F)F)CC3)cc2)CCCN1c1cnc(C(N)=O)c(Nc2cnn(C)c2)n1 [Example D-221, 3-[(1-Methyl-1H-pyrazol-4-yl)amino]-5-[(2R,3R)-2-methyl-3-{4-[1-(trifluoromethyl)cyclopropyl]benzamido}piperidin-1-yl]pyrazine-2-carboxamide]
11 | > 10 | > 10 | 1 to 10 | 0.01 to 0.1 | CC(C)c1ccc(C(=O)N[C@@H]2CCCN(c3cnc(C(N)=O)c(Nc4cnn(C)c4)n3)C2)cc1 [Example D-222, 3-[(1-Methyl-1H-pyrazol-4-yl)amino]-5-[(3R)-3-[4-(propan-2-yl)benzamido]piperidin-1-yl]pyrazine-2-carboxamide]
12 | > 10 | 1 to 10 | 0.1 to 1 | 0.01 to 0.1 | C[C@@H]1[C@H](NC(=O)c2ccc(C(C)(C)C)cc2F)CCCN1c1cnc(C(N)=O)c(Nc2cnn(C)c2)n1 [Example D-223, 5-[(2R,3R)-3-(4-tert-butyl-2-fluorobenzamido)-2-methylpiperidin-1-yl]-3-[(1-methyl-1H-pyrazol-4-yl)amino]pyrazine-2-carboxamide]
13 | 1 to 10 | 0.1 to 1 | 0.1 to 1 | ≤ 0.01 | C[C@@H]1[C@H](NC(=O)c2ccc3c(c2)OCCO3)CCCN1c1cnc(C(N)=O)c(Nc2cnn(C)c2)n1 [Example D-224, 5-[(2R,3R)-3-(2,3-dihydro-1,4-benzodioxine-6-amido)-2-methylpiperidin-1-yl]-3-[(1-methyl-1H-pyrazol-4-yl)amino]pyrazine-2-carboxamide]
14 | 0.1 to 1 | 1 to 10 | 0.1 to 1 | ≤ 0.01 | Cn1cc(Nc2nc(N3CCC[C@@H](n4ccc5cc(C6CC6)ncc5c4=O)C3)cnc2C(N)=O)cn1 [Example D-225, 5-[(3R)-3-(6-cyclopropyl-1-oxo-1,2-dihydro-2,7-naphthyridin-2-yl)piperidin-1-yl]-3-[(1-methyl-1H-pyrazol-4-yl)amino]pyrazine-2-carboxamide]
15 | 0.1 to 1 | 0.1 to 1 | 0.01 to 0.1 | ≤ 0.01 | C[C@@H]1[C@H](NC(=O)c2ccc3scnc3c2)CCCN1c1cnc(C(N)=O)c(Nc2ccc(N3CCN(C)CC3)cc2)n1 [Example D-226, N-[(2R,3R)-1-(5-carbamoyl-6-{[4-(4-methylpiperazin-1-yl)phenyl]amino}pyrazin-2-yl)-2-methylpiperidin-3-yl]-1,3-benzothiazole-5-carboxamide]
16 | 0.1 to 1 | 0.1 to 1 | 0.01 to 0.1 | ≤ 0.01 | C[C@@H]1[C@H](NC(=O)c2ccc(S(C)(=O)=O)cc2)CCCN1c1cnc(C(N)=O)c(Nc2ccc(N3CCN(C)CC3)cc2)n1 [Example D-227, 5-[(2R,3R)-3-(4-methanesulfonylbenzamido)-2-methylpiperidin-1-yl]-3-{[4-(4-methylpiperazin-1-yl)phenyl]amino}pyrazine-2-carboxamide]
